Assay results from the supplement of paper PMC10307832.

Tests used:
Assay in all cases: relative viability (nuclei count vs DMSO), 5 days (fraction); higher = more cells survive
[1] = compound: CS(=O)(=O)c1ccc(C(=O)Nc2ccc(Cl)c(-c3ccccn3)c2)c(Cl)c1 [Vismodegib] + Nc1nc2[nH]cc(CCc3ccc(C(=O)N[C@@H](CCC(=O)O)C(=O)O)cc3)c2c(=O)[nH]1 [Pemetrexed] (partner 0.2 µM)
In short: (§1)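 Lung cancer cell lines in 1536-well plates were dosed by pin tool the day after seeding, either with one drug alone or with a fixed anchor-drug dose plus five library-drug doses (not always all listed) in √10 steps. After 5 days, cells were fixed and their nuclei stained in one step (final 0.05% Triton X-100, 1% formaldehyde, 1 ug/ml Hoechst), then counted on 4× images. Relative viability is the nuclei count in treated wells divided by that in vehicle wells. Values are medians of duplicate plates.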

[2] = compound: CS(=O)(=O)c1ccc(-c2cnc(N)c(C(=O)Nc3ccccc3)n2)cc1 [VE-821] + CC(C)C[C@H](NC(=O)[C@H](Cc1ccccc1)NC(=O)c1cnccn1)B(O)O [Bortezomib] (partner 0.002 µM)
In short: as §1

[3] = compound: N#CC[C@H](C1CCCC1)n1cc(-c2ncnc3[nH]ccc23)cn1 [Ruxolitinib] + COc1cccc2cc(-c3nc([C@H]4CC[C@H](C(=O)O)CC4)n4ncnc(N)c34)[nH]c12 [OSI-027] (partner 0.5 µM)
In short: as §1

[4] = compound: CS(=O)(=O)c1ccc(-c2cnc(N)c(C(=O)Nc3ccccc3)n2)cc1 [VE-821] + C[C@]1(O)C[C@@H](c2nc(-c3ccc4ccc(-c5ccccc5)nc4c3)c3c(N)nccn32)C1 [Linsitinib] (partner 1 µM)
In short: as §1

Cell Line | relative viability ([1]; first compound 0.08 µM) | relative viability ([1]; first compound 0.253 µM) | relative viability ([1]; first compound 0.8 µM) | relative viability ([1]; first compound 2.53 µM) | relative viability ([1]; first compound 8 µM) | relative viability ([2]; first compound 0.08 µM) | relative viability ([2]; first compound 0.253 µM) | relative viability ([2]; first compound 0.8 µM) | relative viability ([2]; first compound 2.53 µM) | relative viability ([2]; first compound 8 µM) | relative viability ([3]; first compound 0.08 µM) | relative viability ([3]; first compound 0.253 µM) | relative viability ([3]; first compound 0.8 µM) | relative viability ([3]; first compound 2.53 µM) | relative viability ([3]; first compound 8 µM) | relative viability ([4]; first compound 0.08 µM) | relative viability ([4]; first compound 0.253 µM) | relative viability ([4]; first compound 0.8 µM) | relative viability ([4]; first compound 2.53 µM) | relative viability ([4]; first compound 8 µM)
NCI-H2085 | 0.78 | 0.887 | 0.944 | 0.98 | 0.865 | 1.04 | 0.929 | 0.892 | 1.12 | 0.98 | 0.674 | 0.633 | 0.745 | 0.672 | 0.647 | 0.979 | 0.891 | 0.847 | 0.941 | 0.926
NCI-H2087 | 0.692 | 0.657 | 0.651 | 0.643 | 0.657 | 0.996 | 1.07 | 1.16 | 0.77 | 0.937 | 0.488 | 0.413 | 0.585 | 0.478 | 0.642 | 1.18 | 0.873 | 1.23 | 1.05 | 0.864
NCI-H2126 | 0.717 | 0.664 | 0.661 | 0.623 | 0.681 | 1.22 | 1.04 | 1.11 | 1.04 | 1.09 | 0.758 | 0.664 | 0.74 | 0.794 | 0.689 | 0.805 | 0.652 | 0.589 | 0.715 | 0.627
NCI-H2228 | 0.342 | 0.401 | 0.291 | 0.316 | 0.333 | 1.23 | 0.931 | 1.2 | 0.824 | 0.635 | 0.629 | 0.419 | 0.743 | 0.446 | 0.289 | 0.955 | 0.866 | 0.635 | 0.758 | 0.395
NCI-H2347 | 0.423 | 0.423 | 0.459 | 0.435 | 0.458 | 1.07 | 0.881 | 0.729 | 0.876 | 0.878 | 0.438 | 0.377 | 0.451 | 0.397 | 0.486 | 1.02 | 1.05 | 1.07 | 1.21 | 1.06
NCI-H2405 | 1.13 | 1.03 | 1.03 | 1.01 | 1.01 | 1.1 | 1 | 0.974 | 1.02 | 0.947 |  | 0.503 | 0.684 | 0.623 | 0.468 | 0.881 | 0.943 | 0.724 | 1.09 | 0.693
NCI-H3122 | 0.201 | 0.199 | 0.228 | 0.184 | 0.19 | 1 | 1.02 | 1.01 | 1.02 | 1 |  | 0.296 | 1.22 | 0.51 | 0.569 | 1.06 | 0.955 | 0.989 | 1.05 | 0.967
PC-3 [JPC-3] | 1.05 | 1.03 | 1.13 | 1.16 | 0.651 | 0.871 | 0.884 | 0.932 | 0.884 | 0.842 | 0.756 | 0.702 | 0.811 | 0.704 | 0.672 | 0.923 | 0.932 | 1.05 | 1.07 | 1.01
PC-14 | 0.148 | 0.135 | 0.133 | 0.144 | 0.136 | 1.02 | 0.846 | 0.855 | 0.871 | 0.899 |  | 0.949 | 1.22 | 0.608 | 0.543 | 1.02 | 0.911 | 0.95 | 1.02 | 0.971
RERF-LC-KJ | 0.491 | 0.454 | 0.468 | 0.508 | 0.479 | 1.15 | 1.13 | 0.957 | 1.03 | 0.82 | 0.56 | 0.442 | 0.685 | 0.537 | 0.536 | 0.902 | 0.871 | 0.819 | 0.875 | 0.753
SK-LU-1 | 0.971 | 1.03 | 0.982 | 0.909 | 0.845 | 1.28 | 1.13 | 0.99 | 1.12 | 1.21 | 0.413 | 0.36 | 0.393 | 0.295 | 0.291 | 1.15 | 0.86 | 1.07 | 0.843 | 0.383
SW 1573 | 0.79 | 0.894 | 0.764 | 0.855 | 0.865 | 1.23 | 1.05 | 1.15 | 1.15 | 1.01 | 0.607 | 0.482 | 0.815 | 0.386 | 0.573 | 0.912 | 0.859 | 0.789 | 0.874 | 0.874
